Measured values: paper PMC2364086, “Metabolism and growth inhibition of four retinoids in head and neck squamous normal and malignant cells” (British Journal of Cancer, 2001)

Legend:
UM-SCC-35 = assay: Retinoid metabolism / turnover rate, HPLC; conditions: for Metabolites Pellet: UM-SCC-35 cell pellet
Excerpt: (§1) Retinoic acid is an active metabolite of retinol (ROL, vitamin A) that plays an important role in growth and differentiation of a variety of cell types (Gudas et al, 1994). […] This is a whitish and reddish plaque in the epithe- lial lining in the oral cavity that have a relatively high risk to become malignant. […] One impor- tant route of ATRA metabolism consists of hydroxylation at posi- tion 4 of the cyclohexenyl ring to form 4-hydroxy-RA, which is readily oxidized to 4-oxo-RA. Other metabolic pathways of ATRA include isomerization, decarboxylation and glucuronidation processes (Rockley et al, 1980; Roberts et al, 1980; Sass et al, 1994). In vitro, 4-hydroxylation of ATRA is mediated by a cytochrome P450 (CYP)-dependent mono-oxogenase system that requires NAPDH and oxygen (Roberts et al, 1980). The present study was undertaken to investigate to what extent a panel of retinoids, including 13cRA, is able to inhibit growth of HNSCC cells and cultures of normal oral keratinocytes (OKC). […] After binding of retinoids to retinoic acid receptors (RARs and RXRs) dimers are formed that are able to regulate the expression of genes involved in growth and differentiation. We compared the metabolism and level of growth inhibition of 13cRA with that of ATRA, 9cRA and retinol in four HNSCC cell lines and normal oral keratinocyte cultures (OKC).

UM-SCC-35R = assay: Retinoid metabolism / turnover rate, HPLC; set-up: Metabolites Medium: dose or concentration left out as unconfirmed; conditions: for Metabolism (turnover rate) Mean: 24 h
Excerpt: as §1

UM-SCC-22A = assay: Retinoid metabolism / turnover rate, HPLC; set-up: Metabolites Medium: dose or concentration left out as unconfirmed; conditions: for Metabolites Medium: UM-SCC-22A medium; for Metabolism (turnover rate) Mean: 24 h
Excerpt: as §1

UM-SCC-14C = assay: Retinoid metabolism / turnover rate, HPLC; set-up: Metabolites Medium: dose or concentration left out as unconfirmed; conditions: for Metabolites Medium: UM-SCC-14C medium; for Metabolism (turnover rate) Mean: 24 h
Excerpt: as §1

[1] = test system: normal oral keratinocyte cultures (OKC); assay: Retinoid metabolism / turnover rate, HPLC; set-up: Metabolites Medium: dose or concentration left out as unconfirmed
Excerpt: as §1

CYP26 = test system: CYP26; set-up: method as in Sonneveld et al, 1998; conditions: ref Sonneveld et al, 1998; cited from earlier work
oral leukoplakia = conditions: ref Koch, 1978; cited from earlier work
[2] = 72 h exposure, 1 mM retinoid, HPLC
[3] = OKC, exposed, decrease in medium and cells between 4 and 24 h

| Structure (SMILES) | Metabolites Pellet (UM-SCC-35; [2]) | Metabolites Medium (UM-SCC-22A; 72 h exposure, HPLC) | Metabolites Medium (UM-SCC-14C; 72 h exposure, HPLC) | Metabolism (turnover rate) Mean [1, 3] | Metabolism by CYP26 (CYP26) | Metabolism (turnover rate) Mean (UM-SCC-35; human, 24 h, 1 µM) | Metabolism (turnover rate) Mean (UM-SCC-35R; human, 1 µM) | Isomerization to other RA isomers (UM-SCC-22A; human, 1 µM) | Metabolism (turnover rate) Mean (UM-SCC-22A; human, 1 µM) | Isomerization to other RA isomers (UM-SCC-14C; human, 1 µM) | Metabolism (turnover rate) Mean (UM-SCC-14C; human, 1 µM) | Isomerization to other RA isomers ([1]; human, 1 µM) | Metabolism (turnover rate) Mean ([1]; human, 24 h, 1 µM) | also measured |
| --- | --- | --- | --- | --- | --- | --- | --- | --- | --- | --- | --- | --- | --- | --- |
| CC1=C(/C=C/C(C)=C\C=C\C(C)=C\C(=O)O)C(C)(C)CCC1 [9cRA, 9-cis-RA] | b (between 10 and 15 min) | a,b | a,b | 12.0 pmol per mg protein per hour | can not metabolize | – | – | – | – | – | – | – | – | Metabolites Medium (UM-SCC-35; UM-SCC-35 medium, 72 h exposure, 1 mM retinoid, HPLC): a,b,c; Metabolites Pellet (UM-SCC-35R; UM-SCC-35R cell pellet, 72 h exposure, HPLC): b (between 10 and 15 min); Metabolites Medium (UM-SCC-35R; UM-SCC-35R medium, 72 h exposure, HPLC): a,b; Isomerization to other RA isomers (UM-SCC-22A; UM-SCC-22A, ATRA to 13cRA, 13cRA to ATRA, 9cRA to ATRA and 13cRA): up to 5%; Isomerization to other RA isomers (UM-SCC-14C; UM-SCC-14C, ATRA to 13cRA, 13cRA to ATRA, 9cRA to ATRA and 13cRA): up to 5%; Isomerization to other RA isomers ([1]; OKC, ATRA to 13cRA, 13cRA to ATRA, 9cRA to ATRA and 13cRA): up to 5% |
| CC1=C(/C=C/C(C)=C/C=C/C(C)=C\C(=O)O)C(C)(C)CCC1 [13cRA, 13-cis-retinoic acid] | – | – | – | – | can not metabolize | 949.5 pmol per mg protein per hour | 6.9 pmol per mg protein per hour | up to 10% | 154.1 pmol per mg protein per hour | up to 10% | 78.7 pmol per mg protein per hour | up to 10% | 38.8 pmol per mg protein per hour | Metabolites Pellet (UM-SCC-35R; human, 72 h, 1 µM): b,d2; Metabolites Pellet (UM-SCC-22A; human, 72 h, 1 µM): d2; Metabolites Pellet (UM-SCC-14C; human, 72 h, 1 µM): d2; Metabolites Pellet ([1]; human, 72 h, 1 µM): d2 |
| CC1=C(/C=C/C(C)=C/C=C/C(C)=C/C(=O)O)C(C)(C)CCC1 [ATRA, all-trans-retinoic acid] | – | – | – | – | highly substrate (ATRA) specific | 1,016.0 pmol per mg protein per hour | 52.7 pmol per mg protein per hour | up to 10% | 104.8 pmol per mg protein per hour | up to 10% | 13.3 pmol per mg protein per hour | up to 10% | 14.8 pmol per mg protein per hour | Proportion of leukoplakia patients in whom active (oral leukoplakia): 59%; Major metabolite (UM-SCC-35; human, 24 h, 1 µM): 4-OH-RA |
| CC1=C(/C=C/C(C)=C/C=C/C(C)=C/CO)C(C)(C)CCC1 [ROL, retinol] | c1 | d1 | d1 | 98.7 pmol per mg protein per hour | – | – | – | – | – | – | – | – | – | Formation of other retinoids after exposure (UM-SCC-35; UM-SCC-35): no or very small amounts of other retinoids; Formation of other retinoids after exposure (UM-SCC-35R; UM-SCC-35R): no or very small amounts of other retinoids; Metabolites Pellet (UM-SCC-22A; UM-SCC-22A cell pellet, 72 h exposure, HPLC): d1; Formation of ATRA after exposure (UM-SCC-14C; UM-SCC-14C): relatively high formation of ATRA; Metabolites Pellet (UM-SCC-14C; UM-SCC-14C cell pellet, 72 h exposure, HPLC): d1; Metabolites Pellet ([1]; OKC cell pellet, 72 h exposure, HPLC): d1; Metabolites Medium ([1]; OKC medium, 72 h exposure, HPLC): d1 |
